Laboratory results: PubChem BioAssay (NCI)
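48-hour exposure; five concentrations; linearly interpolated endpoints. GI50 is the concentration that inhibits growth by half. TGI: concentration producing complete growth inhibition.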

Experiments:
Test in all cases: growth of human tumour cells (NCI), 48 h
SF-295 CNS = system: SF-295 CNS
LOX IMVI melanoma = system: LOX IMVI melanoma
UACC-257 melanoma = system: UACC-257 melanoma
SF-268 CNS = system: SF-268 CNS
SNB-19 CNS = system: SNB-19 CNS
TK-10 renal = system: TK-10 renal
MOLT-4 leukemia = system: MOLT-4 leukemia
A549 NSCLC = system: A549 NSCLC
OVCAR-5 ovarian = system: OVCAR-5 ovarian
U251 CNS = system: U251 CNS
HL-60(TB) leukemia = system: HL-60(TB) leukemia
NCI-H460 lung = system: NCI-H460 lung
MCF7 breast = system: MCF7 breast
CAKI-1 renal = system: CAKI-1 renal
HCT-116 colon = system: HCT-116 colon
NCI-H522 lung = system: NCI-H522 lung
SF-539 CNS = system: SF-539 CNS
SNB-75 CNS = system: SNB-75 CNS
MALME-3M melanoma = system: MALME-3M melanoma
NCI/ADR-RES ovarian = system: NCI/ADR-RES ovarian
ACHN renal = system: ACHN renal
HOP-92 NSCLC = system: HOP-92 NSCLC
786-0 renal = system: 786-0 renal
DU-145 prostate = system: DU-145 prostate
OVCAR-8 ovarian = system: OVCAR-8 ovarian
SK-MEL-2 melanoma = system: SK-MEL-2 melanoma
COLO 205 colon = system: COLO 205 colon
HOP-62 NSCLC = system: HOP-62 NSCLC
HCC-2998 colon = system: HCC-2998 colon
K-562 leukemia = system: K-562 leukemia
M14 melanoma = system: M14 melanoma
IGROV1 ovarian = system: IGROV1 ovarian
RPMI-8226 leukemia = system: RPMI-8226 leukemia
HT29 colon = system: HT29 colon
SW-620 colon = system: SW-620 colon
MDA-MB-231 breast = system: MDA-MB-231 breast
HCT-15 colon = system: HCT-15 colon
NCI-H226 lung = system: NCI-H226 lung
OVCAR-4 ovarian = system: OVCAR-4 ovarian
MDA-MB-435 = system: MDA-MB-435
CCRF-CEM leukemia = system: CCRF-CEM leukemia
NCI-H23 lung = system: NCI-H23 lung
PC-3 prostate = system: PC-3 prostate
KM12 colon = system: KM12 colon
BT-549 breast = system: BT-549 breast
SR leukemia = system: SR leukemia
SK-MEL-28 melanoma = system: SK-MEL-28 melanoma
EKVX NSCLC = system: EKVX NSCLC
SK-MEL-5 melanoma = system: SK-MEL-5 melanoma
SN12C renal = system: SN12C renal
UACC-62 melanoma = system: UACC-62 melanoma
A498 renal = system: A498 renal
HS 578T breast = system: HS 578T breast
SK-OV-3 ovarian = system: SK-OV-3 ovarian
OVCAR-3 ovarian = system: OVCAR-3 ovarian
UO-31 renal = system: UO-31 renal
RXF 393 renal = system: RXF 393 renal

For O=C(Cn1cc(-c2ccccc2)nn1)NC1CCCCC1, the TGI (SF-295 CNS) was > 100 µM, the TGI (LOX IMVI melanoma) was > 100 µM and the TGI (UACC-257 melanoma) was > 100 µM. For the same compound, the TGI (SF-268 CNS) was > 100 µM, the TGI (SNB-19 CNS) was > 100 µM and the TGI (TK-10 renal) was > 100 µM. The TGI (MOLT-4 leukemia) was > 100 µM, the TGI (A549 NSCLC) was > 100 µM and the TGI (OVCAR-5 ovarian) was > 100 µM. The TGI (U251 CNS) was > 100 µM, the TGI (HL-60(TB) leukemia) was > 100 µM and the TGI (NCI-H460 lung) was > 100 µM. The TGI (MCF7 breast) was > 100 µM, the TGI (CAKI-1 renal) was > 100 µM and the TGI (HCT-116 colon) was > 100 µM. The TGI (NCI-H522 lung) was > 100 µM, the TGI (SF-539 CNS) was > 100 µM and the TGI (SNB-75 CNS) was > 100 µM. For the same compound, the TGI (MALME-3M melanoma) was > 100 µM, the TGI (NCI/ADR-RES ovarian) was > 100 µM and the TGI (ACHN renal) was > 100 µM. The TGI (HOP-92 NSCLC) was > 100 µM, the TGI (786-0 renal) was > 100 µM and the TGI (DU-145 prostate) was > 100 µM. For the same compound, the TGI (OVCAR-8 ovarian) was > 100 µM, the TGI (SK-MEL-2 melanoma) was > 100 µM and the TGI (COLO 205 colon) was > 100 µM. The TGI (HOP-62 NSCLC) was > 100 µM, the TGI (HCC-2998 colon) was > 100 µM and the TGI (K-562 leukemia) was > 100 µM. The TGI (M14 melanoma) was > 100 µM, the TGI (IGROV1 ovarian) was > 100 µM and the TGI (RPMI-8226 leukemia) was > 100 µM. For the same compound, the TGI (HT29 colon) was > 100 µM, the TGI (SW-620 colon) was > 100 µM and the TGI (MDA-MB-231 breast) was > 100 µM. The TGI (HCT-15 colon) was > 100 µM, the TGI (NCI-H226 lung) was > 100 µM and the TGI (OVCAR-4 ovarian) was > 100 µM. For the same compound, the TGI (MDA-MB-435) was > 100 µM, the TGI (CCRF-CEM leukemia) was > 100 µM and the TGI (NCI-H23 lung) was > 100 µM. The TGI (PC-3 prostate) was > 100 µM, the TGI (KM12 colon) was > 100 µM and the TGI (BT-549 breast) was > 100 µM. For the same compound, the TGI (SR leukemia) was > 100 µM, the TGI (SK-MEL-28 melanoma) was > 100 µM and the TGI (EKVX NSCLC) was > 100 µM. The TGI (SK-MEL-5 melanoma) was > 100 µM and the TGI (SN12C renal) was > 100 µM.
C[n+]1c(/C=C/c2c[nH]c3ccccc23)ccc2ccccc21 gave a GI50 (SF-295 CNS) of 6.93 µM, a TGI (SF-295 CNS) of 20.5 µM and a GI50 (LOX IMVI melanoma) of 11 µM. The TGI (LOX IMVI melanoma) was 23.1 µM, the GI50 (UACC-257 melanoma) was 12.2 µM and the TGI (UACC-257 melanoma) was 25.2 µM. For the same compound, the GI50 (SF-268 CNS) was 10.4 µM, the TGI (SF-268 CNS) was 24.2 µM and the GI50 (SNB-19 CNS) was 11.3 µM. It also gave a TGI (SNB-19 CNS) of 35.1 µM, a GI50 (MOLT-4 leukemia) of 4.03 µM and a TGI (MOLT-4 leukemia) of 15.5 µM. For the same compound, the GI50 (A549 NSCLC) was 5.38 µM, the TGI (A549 NSCLC) was 26 µM and the GI50 (OVCAR-5 ovarian) was 18 µM. The TGI (OVCAR-5 ovarian) was 59.1 µM, the GI50 (UACC-62 melanoma) was 7.31 µM and the TGI (UACC-62 melanoma) was 21.1 µM. It also gave a GI50 (A498 renal) of 2.8 µM, a TGI (A498 renal) of 18.1 µM and a GI50 (U251 CNS) of 8.75 µM. For the same compound, the TGI (U251 CNS) was 22.5 µM, the GI50 (HL-60(TB) leukemia) was 12.8 µM and the TGI (HL-60(TB) leukemia) was 30.1 µM. It also gave a GI50 (NCI-H460 lung) of 3.14 µM, a TGI (NCI-H460 lung) of 12.9 µM and a GI50 (MCF7 breast) of 2.16 µM. For the same compound, the TGI (MCF7 breast) was 34.1 µM, the GI50 (CAKI-1 renal) was 14.6 µM and the TGI (CAKI-1 renal) was 34.9 µM. For the same compound, the GI50 (HCT-116 colon) was 4.65 µM, the TGI (HCT-116 colon) was 22.5 µM and the GI50 (NCI-H522 lung) was 11.8 µM. For the same compound, the TGI (NCI-H522 lung) was 25.9 µM, the GI50 (SF-539 CNS) was 12.7 µM and the TGI (SF-539 CNS) was 27.3 µM. The GI50 (SNB-75 CNS) was 14.1 µM, the TGI (SNB-75 CNS) was 27.4 µM and the GI50 (HS 578T breast) was 13.2 µM. The TGI (HS 578T breast) was 33.3 µM, the GI50 (NCI/ADR-RES ovarian) was > 100 µM and the TGI (NCI/ADR-RES ovarian) was > 100 µM. It also gave a GI50 (ACHN renal) of 10.1 µM, a TGI (ACHN renal) of 47.8 µM and a GI50 (786-0 renal) of 14.2 µM. It also gave a TGI (786-0 renal) of 30.3 µM, a GI50 (SK-OV-3 ovarian) of 14.7 µM and a TGI (SK-OV-3 ovarian) of 90.8 µM. The GI50 (DU-145 prostate) was 10.1 µM, the TGI (DU-145 prostate) was 22.7 µM and the GI50 (OVCAR-8 ovarian) was 4.24 µM. It also gave a TGI (OVCAR-8 ovarian) of 28.9 µM, a GI50 (SK-MEL-2 melanoma) of 16.1 µM and a TGI (SK-MEL-2 melanoma) of 30.6 µM. For the same compound, the GI50 (COLO 205 colon) was 5.44 µM, the TGI (COLO 205 colon) was 22.2 µM and the GI50 (HOP-62 NSCLC) was 12.8 µM. It also gave a TGI (HOP-62 NSCLC) of 31.8 µM, a GI50 (HCC-2998 colon) of 10.5 µM and a TGI (HCC-2998 colon) of 23.8 µM. It also gave a GI50 (K-562 leukemia) of 2.32 µM, a TGI (K-562 leukemia) of 18.1 µM and a GI50 (M14 melanoma) of 14 µM. It also gave a TGI (M14 melanoma) of 33.2 µM, a GI50 (IGROV1 ovarian) of 11 µM and a TGI (IGROV1 ovarian) of 39.4 µM. For the same compound, the GI50 (RPMI-8226 leukemia) was 5.63 µM, the TGI (RPMI-8226 leukemia) was 28.2 µM and the GI50 (HT29 colon) was 5.06 µM. It also gave a TGI (HT29 colon) of 27.5 µM, a GI50 (SW-620 colon) of 4 µM and a TGI (SW-620 colon) of 19.4 µM. It also gave a GI50 (MDA-MB-231 breast) of 10.5 µM, a TGI (MDA-MB-231 breast) of 23 µM and a GI50 (HCT-15 colon) of 18 µM. It also gave a TGI (HCT-15 colon) of 53.4 µM, a GI50 (NCI-H226 lung) of 11 µM and a TGI (NCI-H226 lung) of 29.1 µM. The GI50 (OVCAR-4 ovarian) was 7.07 µM, the TGI (OVCAR-4 ovarian) was 37.1 µM and the GI50 (MDA-MB-435) was 7.95 µM. For the same compound, the TGI (MDA-MB-435) was 20.6 µM, the GI50 (CCRF-CEM leukemia) was 5.59 µM and the TGI (CCRF-CEM leukemia) was 45 µM. For the same compound, the GI50 (OVCAR-3 ovarian) was 7.07 µM, the TGI (OVCAR-3 ovarian) was 26.7 µM and the GI50 (PC-3 prostate) was 9.74 µM. The TGI (PC-3 prostate) was 25.8 µM, the GI50 (KM12 colon) was 4.61 µM and the TGI (KM12 colon) was 22.3 µM. The GI50 (BT-549 breast) was 18.6 µM, the TGI (BT-549 breast) was 34.2 µM and the GI50 (SR leukemia) was 5.84 µM. For the same compound, the TGI (SR leukemia) was 30 µM, the GI50 (UO-31 renal) was 11.3 µM and the TGI (UO-31 renal) was 30.4 µM. The GI50 (SK-MEL-28 melanoma) was 13.8 µM, the TGI (SK-MEL-28 melanoma) was 27.3 µM and the GI50 (SK-MEL-5 melanoma) was 6.15 µM. For the same compound, the TGI (SK-MEL-5 melanoma) was 19.6 µM, the GI50 (RXF 393 renal) was 13.9 µM and the TGI (RXF 393 renal) was 27.9 µM. For the same compound, the GI50 (SN12C renal) was 5.68 µM and the TGI (SN12C renal) was 21 µM.
